From patent publication US20250214996A1, “SALTS AND SOLID FORMS OF AN ESTROGEN RECEPTOR ANTAGONIST” (Olema Pharmaceuticals, Inc., priority 2022, published 2025)

Key:
Format in all cases: physicochemical
[1] = Competitive slurry of Fumarate Form E and Fumarate Form A Anhydrate (XRPD)
Experimental: Competitive slurry experiments were performed with Compound 1 Fumarate Form E and Compound 1 Fumarate Form A Anhydrate, as follows:
Experiment #1: Compound 1 Fumarate Form E (100 mg), Compound 1 Fumarate Form A Anhydrate (100 mg), and isopropanol (2 mL) were added into two 8-mL vials and mixed well in a shaker at 25° C. and 40° C., respectively. Samples for analysis were taken at 24 h and 72 h.
Experiment #2: Compound 1 Fumarate Form E (100 mg), Compound 1 Fumarate Form A Anhydrate (100 mg), and water (2 mL) were added into two 8-mL vials and mixed well in a shaker at 25° C. and 40° C., respectively. Samples for analysis were taken at 24 h and 72 h.
Experiment #3: Compound 1 Fumarate Form E (100 mg), Compound 1 Fumarate Form A Anhydrate (100 mg), and ethyl acetate (2 mL) were added into two 8-mL vials and mixed well in a shaker at 25° C. and 40° C., respectively. Samples for analysis were taken at 24 h and 72 h.

[2] = Stability in oven at 60° C. for two weeks
Experimental: Amorphous Compound 1, Compound 1 Fumarate Form E, and Compound 1 Fumarate Form A Anhydrate were placed in an oven at 60° C. for two weeks to evaluate their stability.

[3] = Water solubility at RT, 24 hours, HPLC/pH/XRPD
Experimental: The HPLC method used for solubility measurements is summarized below:
Water solubility was measured in water at RT to evaluate solubility and disproportionation risk. […] After centrifugation, supernatants were collected for HPLC and pH tests, and wet cakes were collected for XRPD characterization.

[4] = Dynamic vapor sorption (DVS) hygroscopicity
Experimental: Dynamic Vapor Sorption (DVS) was measured by a SMS (Surface Measurement Systems) DVS Intrinsic. Parameters for DVS test are listed below:
Alternatively, DVS was performed using Intrinsic DVS ([…], UK). About 30-50 mg of sample was placed in a sample basked and hung in the measuring chamber. For an isotherm test, the chamber temperature is maintained by a water bath at a constant 25±1° C. The sample was tested at a targeted RH from 0 to 90% full cycle in step mode. The analysis was performed in 10% RH increments. Time duration at each RH was set as 60 min so that the sample could reach equilibrium with the chamber environment. Data were collected in 20 s increments.
A DVS isotherm plot was collected at 25° C. to investigate the solid form stability as a function of humidity. For Compound 1 Fumarate Form A Anhydrate, solids were pre-equilibrated at 0% RH to remove the unbounded solvent or water before the hygroscopicity experiment was started.

[5] = Slurry in isopropanol for 1 day (XRPD)
[6] = Solubility by gravimetric method; conditions: H2O, 25° C.
Experimental: Solubility studies of Compound 1 and Compound 1 Fumarate in different solvents at 25° C. were performed. Solubility was measured by the dynamic method and gravimetric method.
Gravimetric method: Excess solids and a certain amount of solvent were added 8 mL vials, stirred for 24 hours, and filtered.

CCCN1CC(Oc2ccc([C@@H]3c4[nH]c5ccccc5c4C[C@@H](C)N3CC(C)(C)F)cc2)C1.O=C(O)/C=C/C(=O)O [Compound 1 Fumarate Form A Anhydrate]
competitive slurry outcome (XRPD) ([1]; ethyl acetate, 72 h at 25° C. or 40° C.): a mixture of Compound 1 Fumarate Form E and Compound 1 Fumarate Form A Anhydrate remained | competitive slurry outcome (XRPD) ([1]; isopropanol, 24 h at 25° C. or 40° C.): completely transformed into Compound 1 Fumarate Form E | competitive slurry outcome (XRPD) ([1]; water, 72 h at 25° C. or 40° C.): a mixture of Compound 1 Fumarate Form E and Compound 1 Fumarate Form A Anhydrate remained | HPLC Purity (%) Starting ([2]; before storage): 99.58% | XRPD ([2]; form after oven at 60° C. for two weeks): No change | HPLC Purity (%) 60° C. ([2]; oven at 60° C. for two weeks): 99.54% | HPLC Purity (%) Degradation ([2]; oven at 60° C. for two weeks): −0.04% | stability relative to Amorphous Compound 1 ([2]; oven at 60° C. for two weeks): improved stability | Purity ([3]; HPLC after 24 hours in water at RT): ~100% | pH ([3]; supernatant after 24 hours in water at RT): 5.24 | Solubility in Water ([3]; water, RT, 24 hours, stirring at 400 rpm): 2230 µg/mL | Form Change after 24 h? ([3]; wet cake XRPD after 24 hours in water at RT): No | hygroscopicity by DVS ([4]; DVS): non-hygroscopic | water uptake up to 80% RH ([4]; DVS isotherm at 25° C.): less than 0.20% | Form Change after DVS? ([4]; XRPD before and after DVS): No | Hygroscopicity (%)* (class) ([4]; based on water uptake at 25° C./80% RH): Non-hygroscopic | Hygroscopicity (%)* (water uptake) ([4]; water uptake at 25° C./80% RH): (0.108) % | form after slurrying (XRPD) [5]: No change in form | Solubility [6]: 6500 µg/mL
